How the values were obtained:
Plasmodium falciparum [1] = test: Antiplasmodial activity against Plasmodium falciparum D10; assay type: functional, organism-based
[2] = Therapeutic index, ratio of IC50 for antiproliferative activity against human HeLa cells to IC50 for antiplasmodial activity against Plasmodium falciparum K1; assay type: toxicity, cell-based; conditions: for selectivity ratio: HeLa cells, read-out: Ratio IC50
Hemozoin = test: Inhibition of Beta-hematin in Plasmodium falciparum
Plasmodium falciparum [3] = test: Resistance index, ratio of IC50 for antiplasmodial activity against Plasmodium falciparum K1 to IC50 for antiplasmodial activity against Plasmodium falciparum D10; assay type: functional
Plasmodium falciparum [4] = test: Antiplasmodial activity against Plasmodium falciparum K1; assay type: functional, organism-based
HeLa = test: Antiproliferative activity against human HeLa cells assessed as cell growth inhibition; assay type: functional, cell-based
Plasmodium falciparum [5] = test: Antiplasmodial activity against Plasmodium falciparum Nigerian; assay type: functional, organism-based
Plasmodium falciparum [6] = test: Antiplasmodial activity against Plasmodium falciparum FcM29; assay type: functional, organism-based
Plasmodium falciparum [7] = test: Antimalarial activity against chloroquine resistant Plasmodium falciparum FcB1; assay type: functional, organism-based
Plasmodium falciparum [8] = test: Antiplasmodial activity against Plasmodium falciparum 3D7; assay type: functional, organism-based; conditions: for EC50: read-out: EC50
Plasmodium berghei = test: Antimalarial activity against liver stage Plasmodium berghei; assay type: functional, organism-based
Caco-2 = test: Cytotoxicity against human Caco-2 cells assessed as reduction in cell viability; assay type: functional
Plasmodium falciparum [9] = test: Antiplasmodial activity against Plasmodium falciparum W2; assay type: functional, organism-based
Plasmodium falciparum [10] = test: Antiplasmodial activity against Plasmodium falciparum NF54; assay type: functional, organism-based
Plasmodium falciparum [11] = test: Antiplasmodial activity against Plasmodium falciparum TM91C235; assay type: functional, organism-based
Plasmodium falciparum [12] = test: Antiplasmodial activity against Plasmodium falciparum D6; assay type: functional, organism-based
Plasmodium falciparum [13] = test: Antiplasmodial activity against Plasmodium falciparum DD2; assay type: functional, organism-based

C[C@@H]1CC[C@H]2[C@@H](C)C(OCc3ccc(C(=O)N(CCNc4ccnc5cc(Cl)ccc45)CC(=O)NC4CCCCC4)cc3)O[C@@H]3O[C@]4(C)CC[C@@H]1[C@]32OO4 (some centres not stated)
IC50 (Plasmodium falciparum [1]; Plasmodium falciparum, D10): 0.026 µM | selectivity ratio [2]: 12 | IC50 (Hemozoin): 0.45 equiv | Ratio IC50 (Plasmodium falciparum [3]): 1 | IC50 (Plasmodium falciparum [4]; Plasmodium falciparum, K1): 0.023 µM | IC50 (HeLa; Homo sapiens, HeLa): 0.286 µM

C[C@@H]1CC[C@H]2[C@@H](C)C(OCc3ccc(C(=O)N(CCCCNc4ccnc5cc(Cl)ccc45)CC(=O)NC4CCCCC4)cc3)O[C@@H]3O[C@]4(C)CC[C@@H]1[C@]32OO4 (some centres not stated)
IC50 (Plasmodium falciparum [1]; Plasmodium falciparum, D10): 0.035 µM | selectivity ratio [2]: 8 | IC50 (Hemozoin): 0.31 equiv | Ratio IC50 (Plasmodium falciparum [3]): 0.88 | IC50 (Plasmodium falciparum [4]; Plasmodium falciparum, K1): 0.021 µM | IC50 (HeLa; Homo sapiens, HeLa): 0.169 µM

COc1cc(NC(C)CCCNC2CCC3(CC2)OO[C@@]2(C)CCC(C(C)C)=C[C@H]2O3)c2ncccc2c1 (some centres not stated)
IC50 (Plasmodium falciparum [5]): 0.108 µM | IC50 (Plasmodium falciparum [6]): 0.108 µM | IC50 (Plasmodium falciparum [7]): 0.108 µM

C1CCC2(CC1)OOC1(CCN(c3nc(N4CCOCC4)nc(N4CCOCC4)n3)CC1)OO2
IC50 (Plasmodium falciparum [8]): 0.00568 µM

C[C@@H]1CC[C@H]2[C@@H](C)C(OCc3ccc(C(=O)N(CCNc4ccnc5cc(Cl)ccc45)CC(=O)NC(C)(C)C)cc3)O[C@@H]3O[C@]4(C)CC[C@@H]1[C@]32OO4.O=C(O)CC(O)(CC(=O)O)C(=O)O (some centres not stated)
IC50 (Plasmodium falciparum [1]): 0.024 µM | Ratio IC50 [2]: 20 | IC50 (Hemozoin): 0.4 equiv | Ratio IC50 (Plasmodium falciparum [3]): 0.7 | IC50 (Plasmodium falciparum [4]): 0.018 µM | IC50 (HeLa; hela): 0.356 µM

Clc1cc(NCCCNC2CCC3(CC2)OO[C@@]2(c4ccccc4)CC(c4ccccc4)=C[C@H]2O3)c2ncccc2c1 (mixture of isomers)
IC50 (Plasmodium falciparum [5]): 0.041 µM | IC50 (Plasmodium falciparum [6]): 0.041 µM | IC50 (Plasmodium falciparum [7]): 0.041 µM

C1CN(c2nc(N3CCOCC3)nc(N3CCC4(CC3)OOC3(OO4)C4CC5CC(C4)CC3C5)n2)CCO1
IC50 (Plasmodium falciparum [8]): 0.00412 µM

C[C@@H]1CC[C@H]2[C@@H](C)C(OCc3ccc(C(=O)N(CCNc4ccnc5cc(Cl)ccc45)CC(=O)NC(C)(C)C)cc3)O[C@@H]3O[C@]4(C)CC[C@@H]1[C@]32OO4 (some centres not stated)
IC50 (Plasmodium falciparum [1]; Plasmodium falciparum, D10): 0.027 µM | selectivity ratio [2]: 26 | IC50 (Hemozoin): 0.44 equiv | Ratio IC50 (Plasmodium falciparum [3]): 0.6 | IC50 (Plasmodium falciparum [4]; Plasmodium falciparum, K1): 0.019 µM | IC50 (HeLa; Homo sapiens, HeLa): 0.496 µM

Clc1cc(NCCCN[C@H]2C[C@H]3CCC4(OO[C@@]5(c6ccccc6)CC(c6ccccc6)=C[C@H]5O4)[C@H]3C2)c2ncccc2c1 (some centres not stated)
IC50 (Plasmodium falciparum [5]): 0.063 µM | IC50 (Plasmodium falciparum [6]): 0.063 µM | IC50 (Plasmodium falciparum [7]): 0.063 µM

COc1cc(NC(C)CCCNC(=O)C2CCC3(CC2)OOC2(OO3)C3CC4CC(C3)CC2C4)c2nccc(F)c2c1 (configuration not stated)
EC50 (Plasmodium berghei): 2.38 µM | CC50 (Caco-2): > 50000 µM | EC50 (Plasmodium falciparum [9]): 0.057 µM

Clc1cc(NCCNC2CCC3(CC2)OOC2CCC=CC2O3)c2ncccc2c1 (configuration not stated)
IC50 (Plasmodium falciparum [5]): 0.036 µM | IC50 (Plasmodium falciparum [6]): 0.036 µM | IC50 (Plasmodium falciparum [7]): 0.036 µM

COc1cc(NC(C)CCCNC(=O)C2CCC3(CC2)OOC2(OO3)C3CC4CC(C3)CC2C4)c2nccc(C(F)(F)F)c2c1 (configuration not stated)
EC50 (Plasmodium berghei): 4.12 µM | CC50 (Caco-2): > 50000 µM | EC50 (Plasmodium falciparum [9]): 0.06 µM

Clc1cc(NCCCCNC2CCC3(CC2)OO[C@@]2(c4ccccc4)CC(c4ccccc4)=C[C@H]2O3)c2ncccc2c1 (some centres not stated)
IC50 (Plasmodium falciparum [5]): 0.041 µM | IC50 (Plasmodium falciparum [6]): 0.041 µM | IC50 (Plasmodium falciparum [7]): 0.041 µM

C[C@@H]1CC[C@H]2[C@@H](C)C(c3ccco3)O[C@@H]3O[C@]4(C)CC[C@@H]1[C@]32OO4 (some centres not stated)
IC50 (Plasmodium falciparum [10]): 0.0014 µM

CC(=O)O[C@H]1CC2C(C3CC[C@H]([C@H](C)CCC(=O)NCCNc4ccnc5cc(Cl)ccc45)[C@]31C)[C@H](OC(C)=O)C[C@@H]1CC3(CC[C@H]21)OOC1(CCCCC1)OO3 (some centres not stated)
IC50 (Plasmodium falciparum [11]): 0.00854 µM | IC90 (Plasmodium falciparum [11]): 0.0172 µM | IC50 (Plasmodium falciparum [12]): 0.00653 µM | IC90 (Plasmodium falciparum [12]): 0.0106 µM | IC50 (Plasmodium falciparum [9]): 0.00447 µM | IC90 (Plasmodium falciparum [9]): 0.0105 µM

CCOP(=O)(CCCN(O)C(=O)CCC(=O)N(CCCNC(=O)CC[C@H]1O[C@@H]2O[C@]3(C)CC[C@H]4[C@H](C)CC[C@@H]([C@H]1C)C24OO3)CCCNC(=O)CC[C@H]1O[C@@H]2O[C@]3(C)CC[C@H]4[C@H](C)CC[C@@H]([C@H]1C)C24OO3)OCC
IC50 (Plasmodium falciparum [7]): 0.36 µM

C[C@H]1[C@@H](OC(=O)CCC(=O)Nc2cccc3ncnc(Nc4ccc(Cl)c(Cl)c4)c23)O[C@@H]2O[C@]3(C)CC[C@H]4[C@H](C)CC[C@@H]1[C@@]24OO3
EC50 (Plasmodium falciparum [8]): 0.0024 µM

C[C@H]1[C@@H](O)O[C@@H]2C[C@]3(C)CC[C@H]4[C@H](C)CC[C@@H]1[C@@]24OO3
IC50 (Plasmodium falciparum [10]): < 0.007 µM | IC50 (Plasmodium falciparum [1]; Plasmodium falciparum, D10): 0.004 µM | EC50 (Plasmodium falciparum [8]): 0.0024 µM | Ratio IC50 (Plasmodium falciparum [3]): 0.75 | IC50 (Plasmodium falciparum [4]; Plasmodium falciparum, K1): 0.003 µM

C[C@@H]1C[C@@H]2CC3(CC[C@@H]2C2CC[C@@]4(C)C(CC[C@@H]4[C@H](C)CCCNCCNc4ccnc5cc(Cl)ccc45)C21)OOC1(CCCCC1)OO3 (some centres not stated)
IC50 (Plasmodium falciparum [11]): 0.0302 µM | IC90 (Plasmodium falciparum [11]): 0.16 µM | IC50 (Plasmodium falciparum [12]): 0.0335 µM | IC90 (Plasmodium falciparum [12]): 0.103 µM | IC50 (Plasmodium falciparum [9]): 0.0229 µM | IC90 (Plasmodium falciparum [9]): 0.0303 µM

CCC1O[C@@H]2O[C@]3(C)CC[C@H]4[C@H](C)CC[C@@H]([C@H]1C)[C@@]24OO3 (some centres not stated)
IC50 (Plasmodium falciparum [12]): 1.09 ng/mL | IC50 (Plasmodium falciparum [9]): 0.29 ng/mL

CC(C)CN(NC(=O)C1CCC2(CC1)OOC1(OO2)C2CC3CC(C2)CC1C3)c1ccnc(C#N)n1 (configuration not stated)
IC50 (Plasmodium falciparum [9]): 0.0098 µM

COc1ccc2nc3cc(Cl)ccc3c(NCCCN(C)CCO[C@H]3O[C@@H]4O[C@]5(C)CC[C@H]6[C@H](C)CC[C@@H]([C@H]3C)[C@@]46OO5)c2c1
IC50 (Plasmodium falciparum [10]): 0.0122 µM | IC50 (Plasmodium falciparum [13]): 0.0385 µM
